Each block holds one molecule with its values, some of them ahead of it.
What was measured:
C57BL/6J mice = test: Needle injury thrombosis model; assay type: in vivo, mouse; details: A1–E1 5 mg per kg i.v. bolus twice 30 min apart, argatroban 2 mg per kg bolus + 12 mg per kg infusion over 60 min
Protocol: For intravital mouse studies, male mice aged between 5 and 8 weeks old (15–20 g) were used.
A clinical preparation of argatroban (Argatra/Exembol) was purchased from Mitsubishi Tanabe Pharma (Germany) and prepared in sterile saline with 25% (vol/vol) propylene glycol. Synthesized PNA inhibitors and PNA inhibitors + antidote solutions were prepared in sterile saline at a concentration of 2 mg ml^–1. C57BL/6J male mice (15–25 g) were anesthetized with ketamine (150 mg per kg (body weight)) and xylazine (15 mg per kg (body weight)), supplemented with oxygen and subjected to intravital needle injury, as previously described[42]. […] Following each injury, platelet thrombus formation and fibrin generation were monitored over a 15-min period using a confocal intravital microscopy platform (Nikon A1R-Si with an Apo LWD, ×40/1.15-NA water immersion objective; sequential excitation: 488-, 561- and 638-nm lasers; emission: 525/50-, 595/50- and 700/75-nm filters) and NIS Elements Advanced Research acquisition software. […]
The signal obtained from DyLight 649-conjugated anti-GP1bβ for each xyz stack in a time series was thresholded to create a mask. The total signal (arbitrary units) from Alexa Fluor 546-conjugated anti-fibrin within this mask (that is, the fibrin signal within the thrombus) for each time point was then quantified using NIS Elements software (Nikon). […]

[1] = biological target: Biotin-PNA (8-mer) ACAACTGC; test: SPR of PNA hybridization; assay type: binding; details: 25 °C
Protocol: SPR experiments were performed on a Biacore T200 instrument (GE Healthcare) at 25 °C in PBS-P+ buffer (10× stock; Cytiva Life Sciences, 28995084). Biotin-PNA (8-mer) was immobilized on a Streptavidin Series S sensor chip (Cytiva Life Sciences, 29104992). Before immobilization, the two channels were conditioned with 1 M NaCl in 50 mM NaOH. After stabilization, the compound (solution in PBS-P+) was flowed over one of the flow cells of the sensor chip at a concentration of 50 nM at a flow rate of 10 μl min^−1 with a response unit target of 500. Biotin-PNA (8-mer) reached a response unit value of 513.7. The system (not including the flow cells) was washed with 50% isopropanol in 1 M NaCl and 50 mM NaOH after each ligand injection. Kinetic measurements consisted of injections (association, 400 s; dissociation, 450 s; flow rate, 30 μl min^−1) of decreasing concentrations of PNA (4-, 6- and 8-mer; twofold cascade dilutions from the starting concentration). The chip was regenerated between cycles by one injection of regeneration solution (50 mM NaOH) for 10 s at a flow rate of 20 μl min^−1, followed by a 10-s stabilization period. Binding was measured as resonance units over time after blank subtraction, and the data were interpreted using Biacore T200 software (version 3.2). All measurements were performed in duplicate. The KD values were calculated based on steady-state affinity (1:1 binding).

human α-thrombin = biological target: T1, human α-thrombin (Homo sapiens, UniProt P00734); test: Michaelis Menten determination of KM of the fluorogenic substrate; assay type: biochemical; details: without inhibitor, variation of [substrate]; R2 0.98
T1 construct: human α-thrombin (Haematologic Technologies, HCT0020); purchased Haematologic Technologies HCT0020
Protocol: Inhibition assays were performed using 0.2 nM enzyme, 20 μM substrate and increasing concentrations of inhibitor. The concentration of each inhibitor variant was determined using the absorbance of the PNA at 260 nm, as measured by NanoDrop. All reactions were performed at 37 °C in 50 mM Tris-HCl (pH 8.0), 50 mM NaCl and 1 mg ml^–1 bovine serum albumin in black 96-well microtiter plates (Thermo Fisher Scientific, 267342). Reaction progress was monitored by excitation at 339 nm and emission at 439 nm using a SpectraMax or Tecan Spark Plate Reader. Dose–response curves were used to determine the half-maximal inhibitory concentrations (IC50) using Prism 8.0 (GraphPad Software). For each inhibitor, the reactions were performed in triplicate, together with control reactions in the absence of enzyme. The initial velocity was calculated from the slope of the first 10 min of the assay. The curves were normalized to the well without inhibitor, where the initial velocity was set to 100% activity.
MALDI-TOF; m/z found: 1202.95.
5. Thrombin Inhibition Assay
Supplementary Figure 2: Thrombin Fluorogenic Assay
The assay was performed as described in the Online Methods section.
To convert IC50 values to Ki values, KM was determined: The assay described above was performed
without inhibitor but with variation of [substrate]. The Michaelis Menten plot was obtained, and KM […]

Molecule: CC1CNc2c(cccc2S(=O)(=O)N[C@@H](CCCNC(=N)N)C(=O)N2CC[C@@H](C)C[C@@H]2C(=O)O)C1 (stereo partly shown) [argatroban]
fibrin formation and thrombus size (C57BL/6J mice): significant decreases in fibrin formation and thrombus size

Kd [1]: 4.14 µM
Molecule: CAGT

Km (human α-thrombin): 2.42 µM | Vmax (human α-thrombin): 435.8
Molecule: phe-Pro-Arg-Coumarin [(S)-1-(D-phenylalanyl)-N-((S)-5-guanidino-1-((4-methyl-2-oxo-2H-chromen-7-yl)amino)-1-oxopentan-2-yl)pyrrolidine-2-carboxamide, substrate of the thrombin assay]
